Measured values: US20190030053A1, “COMPOSITION FOR INCREASING EXPRESSION OF PGC-1alpha” (BENEBIOSIS CO., LTD., priority 2016, published 2019)
“Also recorded” adds a separate entry of the source.

Key:
[1] = system: PGC-1α and related genes; assay: Gene expression by body parts in aging stimulation models; assay type: in vivo, mouse; conditions: SAM P1/Sku Slc mice, oral 0.1 mg/kg/day, 12 weeks, organs and skeletal muscles
Protocol: In order to investigate the gene expression changes by body parts by the treatment with SL (3′-SL & 6′-SL) compositions in aging stimulation models, 4-week-old male aging stimulation model mice (SAM P1/Sku Slc) were purchased from Central Lab Animal (Korea). Water was freely accessible, and a commercially available pellet feed (Dooyeul Biotech, Korea) was given for one week. […]
Sialyllactose or DW was orally administered daily. […] The dietary intake and body weight change were measured every 5 days. […]
(§1) The gene expression changes by administration of the SL (3′-SL & 6′-SL) compositions were quantitatively compared for eight main organs (heart, hippocampus, brain, spinal cord, lung, liver, spleen, and kidney), three skeletal muscles (soleus muscle, quadriceps femoris muscle, and gastrocnemius muscle), and the like. RNA was extracted by TRIzol agent (Invitrogen). cDNA was synthesized by using RNA, which has been extracted as above and quantified, and a reverse transcription system (Promega, USA). The expression patterns of PGC-1α and related genes were measured by using pre-designed primers and probes (Applied Biosystems; PGC-1α, Mm00447181_m1, GAPDH, and Mm99999915_q1) for the synthesized cDNA and analysis targets (Fndc5, PGC-1α, Erra, UCP1, SOD2, and GPX1). […]

[2] = system: mouse aortic smooth muscle cells (MASMs); assay: Intracellular H2O2 (ROS values, H2DCFDA) in MASMs of aging stimulation model mice; assay type: cell-based; conditions: MASMs from aging stimulation model mice; SL added to culture liquid
Protocol: In addition, for cell-level tests, mouse aortic smooth muscle cells (MASMs) were isolated from the control group fed with a high-fat diet (Rodent Diet with 60 kcal % fat) without SL administration (Griendling et al., 1991), and the SL (3′-SL & 6′-SL) compositions were added to the culture liquid, followed by incubation. For intracellular H2O2 measurement (ROS values), the cells were cultured in 12-well culture plates immersed in 0.1% bovin calf serum. The intracellular ROS values were measured using H2DCFDA. For assay, the cells were cultured together with H2DCFDA in HBSS buffer for 30 minutes. The cells were trypsinized, washed, and lysed in HBSS. The fluorescence values were measured immediately by a CytoFluor plate reader (FIG. 17a).
In FIGS. 17a and 17b, MASMs were extracted from the aging stimulation model mouse control group, and the SL (3′-SL & 6′-SL) compositions were added to the culture liquid to conduct comparison.
FIGS. 17a and 17b show the measurement results of intercellular H2O2 (ROS values) (FIG. 17a) and the measurement results of mitochondrial superoxide production (FIG. 17b).

[3] = system: PGC-1α and related genes; assay: Gene expression by body parts in skin test models; assay type: in vivo, mouse; conditions: HRM2 mice, oral 0.1 mg/kg/day, 10 weeks; organs and muscles
Description: In order to investigate the gene expression chages by body parts by the treatment with the SL (3′-SL & 6′-SL) compositions in skin test models, 6-week-old male skin test model (HRM2) mice (hairless appearance containing melanin) were randomly grouped into three different dietary treatment groups (8 animals per group, a total of 24 animals) below, and the diets (AIN-76A, Dyets, USA) were maintained for 10 weeks. […]
as §1

For `CC(=O)N[C@H]1[C@H]([C@H](O)[C@H](O)CO)O[C@@](OC[C@H]2O[C@@H](O[C@H]3[C@H](O)[C@@H](O)[C@H](O)O[C@@H]3CO)[C@H](O)[C@@H](O)[C@H]2O)(C(=O)O)C[C@@H]1O` [6′-SL, α-NeuNAc-(2→6)-β-D-Gal-(1→4)-D-Glc], the “expression levels of analysis targets (Fndc5, PGC-1α, Erra, UCP1, SOD2, GPX1) vs control group” value [1] was “significant increases”, the “intracellular H2O2 (ROS values)” value [2] was “dropped the ROS values” and the “expression levels of analysis targets (Fndc5, PGC-1α, Erra, UCP1, SOD2, GPX1) vs negative control” value [3] was “very excellent”.

With `CC(=O)N[C@H]1[C@H]([C@H](O)[C@H](O)CO)O[C@@](O[C@H]2[C@@H](O)[C@@H](CO)O[C@@H](O[C@H]3[C@H](O)[C@@H](O)C(O)O[C@@H]3CO)[C@@H]2O)(C(=O)O)C[C@@H]1O` (stereo partly drawn) [3′-SL, α-NeuNAc-(2→3)-β-D-Gal-(1→4)-D-Glc] the “expression levels of analysis targets (Fndc5, PGC-1α, Erra, UCP1, SOD2, GPX1) vs control group” value ([1]; 0.1 mg/kg/day) was “significant increases; also recorded: relatively low compared with 6′-SL”, the “intracellular H2O2 (ROS values)” value [2] was “dropped the ROS values” and the “expression levels of analysis targets (Fndc5, PGC-1α, Erra, UCP1, SOD2, GPX1) vs negative control” value [3] was “relatively low compared with 6′-SL”.
